Where only a bound is given, the exact number is not on record here.

The first experiment deals with T1, NaV1.3 (Homo sapiens, UniProt Q9NY46).
T1 construct: expressed in transfected cells
T1 sequence (Q9NY46 whole entry): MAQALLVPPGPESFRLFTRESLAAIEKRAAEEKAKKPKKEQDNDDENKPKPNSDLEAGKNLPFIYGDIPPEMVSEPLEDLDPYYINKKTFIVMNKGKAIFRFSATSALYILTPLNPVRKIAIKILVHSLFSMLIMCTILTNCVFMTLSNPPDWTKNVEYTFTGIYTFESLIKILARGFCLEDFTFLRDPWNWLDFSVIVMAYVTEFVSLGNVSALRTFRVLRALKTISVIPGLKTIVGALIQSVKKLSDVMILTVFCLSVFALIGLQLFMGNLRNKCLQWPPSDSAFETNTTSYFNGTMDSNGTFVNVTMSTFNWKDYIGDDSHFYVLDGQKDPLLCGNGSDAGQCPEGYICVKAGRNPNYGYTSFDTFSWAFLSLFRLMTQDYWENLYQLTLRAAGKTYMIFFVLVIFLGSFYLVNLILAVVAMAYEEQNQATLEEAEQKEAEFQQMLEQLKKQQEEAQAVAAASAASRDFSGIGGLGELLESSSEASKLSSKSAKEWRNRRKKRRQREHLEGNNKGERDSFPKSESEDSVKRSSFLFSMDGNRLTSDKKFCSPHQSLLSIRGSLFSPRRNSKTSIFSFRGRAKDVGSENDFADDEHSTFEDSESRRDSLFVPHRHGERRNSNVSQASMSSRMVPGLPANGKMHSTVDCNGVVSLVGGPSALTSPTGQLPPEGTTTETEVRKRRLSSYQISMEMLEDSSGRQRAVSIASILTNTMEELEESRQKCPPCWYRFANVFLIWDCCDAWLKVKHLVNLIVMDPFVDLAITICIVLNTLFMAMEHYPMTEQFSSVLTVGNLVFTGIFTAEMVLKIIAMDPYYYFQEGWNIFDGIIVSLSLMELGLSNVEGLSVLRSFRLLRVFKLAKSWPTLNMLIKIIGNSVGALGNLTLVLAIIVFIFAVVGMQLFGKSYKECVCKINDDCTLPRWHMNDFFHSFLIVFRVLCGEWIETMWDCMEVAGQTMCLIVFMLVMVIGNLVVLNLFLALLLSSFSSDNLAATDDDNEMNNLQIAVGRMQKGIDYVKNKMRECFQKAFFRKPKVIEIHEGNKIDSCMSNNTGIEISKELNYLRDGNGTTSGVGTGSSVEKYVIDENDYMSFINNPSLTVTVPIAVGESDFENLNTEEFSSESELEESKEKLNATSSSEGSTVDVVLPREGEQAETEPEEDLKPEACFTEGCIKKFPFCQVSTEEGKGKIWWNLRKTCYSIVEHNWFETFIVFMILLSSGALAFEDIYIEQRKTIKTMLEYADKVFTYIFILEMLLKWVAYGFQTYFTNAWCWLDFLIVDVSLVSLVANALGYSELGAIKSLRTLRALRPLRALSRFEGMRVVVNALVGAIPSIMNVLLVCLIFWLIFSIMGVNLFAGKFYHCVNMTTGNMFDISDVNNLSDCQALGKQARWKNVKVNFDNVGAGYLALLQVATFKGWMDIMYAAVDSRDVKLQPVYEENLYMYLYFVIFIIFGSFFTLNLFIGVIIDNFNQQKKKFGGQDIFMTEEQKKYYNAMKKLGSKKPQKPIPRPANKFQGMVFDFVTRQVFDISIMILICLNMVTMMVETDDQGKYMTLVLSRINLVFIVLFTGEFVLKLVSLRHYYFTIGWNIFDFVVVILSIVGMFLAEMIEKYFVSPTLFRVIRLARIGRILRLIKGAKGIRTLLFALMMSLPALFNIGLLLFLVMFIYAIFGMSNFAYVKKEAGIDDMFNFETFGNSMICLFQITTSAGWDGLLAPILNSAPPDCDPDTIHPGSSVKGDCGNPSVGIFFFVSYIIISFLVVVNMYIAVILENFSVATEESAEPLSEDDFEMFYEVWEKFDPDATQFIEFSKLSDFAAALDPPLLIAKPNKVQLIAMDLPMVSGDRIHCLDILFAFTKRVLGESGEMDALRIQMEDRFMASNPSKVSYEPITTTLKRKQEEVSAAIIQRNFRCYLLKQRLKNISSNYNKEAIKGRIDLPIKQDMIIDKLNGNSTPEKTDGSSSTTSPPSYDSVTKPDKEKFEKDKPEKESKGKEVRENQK
Kind of experiment: VIPR optical membrane potential assay with electrical stimulation, HEK293 cells stably expressing NaV1.3. In kind it is cell-based. As to conditions: compound activity for the NaV1.3 receptors. On the procedure: Compounds of the invention are useful as antagonists of voltage-gated sodium ion channels. Antagonist properties of test compounds were assessed as follows. Cells expressing the NaV of interest were placed into microtiter plates. After an incubation period, the cells were stained with fluorescent dyes sensitive to the transmembrane potential. The test compounds were added to the microtiter plate. The cells were stimulated with either chemical or electrical means to evoke a NaV dependent membrane potential change from unblocked channels, which was detected and measured with trans-membrane potential-sensitive dyes. Antagonists were detected as a decreased membrane potential response to the stimulus. The optical membrane potential assay utilized voltage-sensitive FRET sensors described by Gonzalez and Tsien (See, Gonzalez, J. E. and R. Y. Tsien (1995) “Voltage sensing by fluorescence resonance energy transfer in single cells” Biophys J 69(4): 1272-80, and Gonzalez, J. E. and R. Y. Tsien (1997) “Improved indicators of cell membrane potential that use fluorescence resonance energy transfer” Chem Biol 4(4): 269-77) in combination with instrumentation for measuring fluorescence changes such as the Voltage/Ion Probe Reader (VIPR®) (See, Gonzalez, J. E., K. Oades, et al. (1999) “Cell-based assays and instrumentation for screening ion-channel targets” Drug Discov Today 4(9): 431-439).
The following is an example of how NaV1.3 inhibition activity is measured using the optical membrane potential method #2. Other subtypes are performed in an analogous mode in a cell line expressing the NaV of interest.
HEK293 cells stably expressing NaV1.3 are plated into 96-well microtiter plates. After an appropriate incubation period, the cells are stained with the voltage sensitive dyes CC2-DMPE/DiSBAC2(3) as follows.
2×CC2-DMPE=20 μM CC2-DMPE: 10 mM CC2-DMPE is vortexed with an equivalent volume of 10% pluronic, followed by vortexing in required amount of HBSS containing 10 mM HEPES. Each cell plate will require 5 mL of 2×CC2-DMPE. 50 μL of 2×CC2-DMPE is added to wells containing washed cells, resulting in a 10 μM final staining concentration. The cells are stained for 30 minutes in the dark at RT.
2×DISBAC2(3) with ABSC1=6 μM DISBAC2(3) and 1 mM ABSC1: The required amount of 10 mM DISBAC2(3) is added to a 50 ml conical tube and mixed with 1 μL 10% pluronic for each mL of solution to be made and vortexed together. Then HBSS/HEPES is added to make up 2× solution. Finally, the ABSC1 is added.
The 2×DiSBAC2(3) solution can be used to solvate compound plates. Note that compound plates are made at 2× drug concentration. Wash stained plate again, leaving residual volume of 50 μL. Add 50 μL/well of the 2×DiSBAC2(3) w/ ABSC1. Stain for 30 minutes in the dark at RT.
The electrical stimulation instrument and methods of use are described in ION Channel Assay Methods PCT/US01/21652, herein incorporated by reference. The instrument comprises a microtiter plate handler, an optical system for exciting the coumarin dye while simultaneously recording the coumarin and oxonol emissions, a waveform generator, a current- or voltage-controlled amplifier, and a device for inserting electrodes in well. Under integrated computer control, this instrument passes user-programmed electrical stimulus protocols to cells within the wells of the microtiter plate.
Use the current-controlled amplifier to deliver stimulation wave pulses for 3 s. Two seconds of pre-stimulus recording are performed to obtain the un-stimulated intensities. Five seconds of post-stimulation recording are performed to examine the relaxation to the resting state.
Data are analyzed and reported as normalized ratios of background-subtracted emission intensities measured in the 460 nm and 580 nm channels. Background intensities are then subtracted from each assay channel. […]
As to `CCOC(=O)NS(=O)(=O)c1ccc(NC(=O)[C@@H](C)n2ccc3c(F)cccc32)cc1` [Compound 43, (R)-Ethyl 4-(2-(4-fluoro-1H-indol-1-yl)propanamido)phenylsulfonyl-carbamate], the IC50 (commonly the point on the concentration scale where inhibition reaches its midpoint) is over 5 µM. Same read-out and setting: in the case of `COC(=O)NS(=O)(=O)c1ccc(NC(=O)Cn2ccc3c(C#N)cccc32)cc1` [Compound 44] it was over 5 µM; in that of `CC(=O)NS(=O)(=O)c1ccc(N)cc1` [Compound 45], over 5 µM; in that of `CCC(=O)NS(=O)(=O)c1ccc(NC(=O)C(C)n2ccc3ccccc32)cc1` (stereo not drawn) [Compound 46], over 5 µM. In the case of `COC(=O)NS(=O)(=O)c1ccc(NC(=O)[C@@H](C)N2CCCc3ccccc32)cc1` [Compound 47], the half-inhibitory concentration (IC50) was over 5 µM. Regarding `COC(=O)NS(=O)(=O)c1ccc(NC(=O)CCc2ccc(OC)cc2)cc1` [Compound 48], the IC50 is over 5 µM.

`COc1ccccc1C(=O)NS(=O)(=O)c1ccc(NC(=O)COc2ccnc3c(C(F)(F)F)cccc23)cc1` [Compound 49]: the concentration for half-maximal inhibition (IC50) is over 5 µM.

In the case of `COC(=O)NS(=O)(=O)c1ccc(N2CCN(C(=O)[C@@H](C)N3CCCc4cc(Cl)ccc43)CC2)cc1` [Compound 50], the concentration for half-maximal inhibition (IC50) was over 5 µM.

As to `COC(=O)NS(=O)(=O)c1ccc(NC(=O)CCn2ccc3cc(Cl)ccc32)cc1` [Compound 51], the concentration for half-maximal inhibition (IC50) was over 5 µM. The same measure, in the same setting: in the case of `CCOC(=O)NS(=O)(=O)c1ccc(N2CCN(C(=O)[C@@H](C)N3CCCc4cc(Cl)ccc43)CC2)cc1` [Compound 52] it was over 5 µM; in that of `COC(=O)NS(=O)(=O)c1ccc(N2CC[C@H](N3CCCc4cc(Cl)ccc43)C2=O)cc1` [Compound 53, (S)-methyl 4-(3-(6-chloro-3,4-dihydroquinolin-1(2H)-yl)-2-oxopyrrolidin-1-yl)phenylsulfonylcarbamate], over 5 µM; in that of `C[C@H](C(=O)Nc1ccc(S(=O)(=O)NC(=O)NC(C)(C)C)cc1)n1ccc2c(F)cccc21` [Compound 54], over 5 µM.

Take `COC(=O)NS(=O)(=O)c1ccc(NC(=O)[C@@H](C)N2CCCc3cc(F)ccc32)cc1` [Compound 55]: the IC50 was over 5 µM. Still for that read-out and setting: the figure for `COC(=O)NS(=O)(=O)c1ccc(NC(=O)Cc2ccccc2)cc1` [Compound 56] is over 5 µM; for `C[C@H](C(=O)Nc1ccc(S(=O)(=O)NC(=O)N2CCN(C)CC2)cc1)n1ccc2c(F)cccc21` [Compound 57] it is over 5 µM. Still for that read-out and setting: the figure for `COC(=O)NS(=O)(=O)c1ccc(NC(=O)C(C)n2ccc3c(F)cccc32)cc1` (stereo not drawn) [Compound 59] is under 2 µM; for `COC(=O)NS(=O)(=O)c1ccc(NC(=O)COc2ccnc3c(C(F)(F)F)cccc23)cc1` [Compound 60] it is over 5 µM. Still for that read-out and setting: the figure for `COC(=O)NS(=O)(=O)c1ccc(N2CCN(C(=O)[C@@H](C)N3CCCc4cc(F)ccc43)CC2)cc1` [Compound 61, (R)-methyl 4-(4-(2-(6-fluoro-3,4-dihydroquinolin-1(2H)-yl)propanoyl)piperazin-1-yl)phenylsulfonylcarbamate] is over 5 µM.

`COC(=O)NS(=O)(=O)c1ccc(NC(=O)[C@@H](C)N2CCCc3cccc(Cl)c32)cc1` [Compound 62]: the half-inhibitory concentration (IC50) is over 5 µM. Turning to `C[C@H](C(=O)Nc1ccc(S(=O)(=O)NC(N)=O)cc1)n1ccc2c(F)cccc21` [Compound 63], the half-inhibitory concentration (IC50) lay in the range of 2 to 5 µM. Still for that read-out and setting: the figure for `COC(=O)NS(=O)(=O)c1ccc(NC(=O)COc2ccc(Cl)c(Cl)c2)cc1` [Compound 64] is over 5 µM; for `COC(=O)NS(=O)(=O)c1ccc(NC(=O)[C@H](C)Oc2cccc(Cl)c2Cl)cc1` [Compound 65] it is over 5 µM; for `Cc1cc(C(=O)NS(=O)(=O)c2ccc(NC(=O)[C@@H](C)n3ccc4c(F)cccc43)cc2)c(C)o1` [Compound 66, (R)—N-(4-(2-(4-fluoro-1H indol-1-yl)propanamido)phenylsulfonyl)-2,5-dimethylfuran-3-carboxamide] it is over 5 µM. In the case of `COC(=O)NS(=O)(=O)c1ccc(NC(=O)[C@H](C)N2CCCc3cc(F)ccc32)cc1` [Compound 67], the IC50 was over 5 µM.

Regarding `COC(=O)NS(=O)(=O)c1ccc(NC(=O)[C@H](C)n2ccc3cccc(F)c32)cc1` [Compound 68], the 50% inhibitory concentration (IC50) was over 5 µM. In the case of `COC(=O)NS(=O)(=O)c1ccc(NC(=O)Cn2ccc3cccc(F)c32)cc1` [Compound 69], the concentration for half-maximal inhibition (IC50) is over 5 µM. For `COC(=O)NS(=O)(=O)c1ccc(NC(=O)Cn2ccc3ccc(Cl)cc32)cc1` [Compound 70], the IC50 is over 5 µM. Consider `CCC(=O)NS(=O)(=O)c1ccc(NC(=O)COc2ccnc3c(C(F)(F)F)cccc23)cc1` [Compound 71], for which the half-inhibitory concentration (IC50) was over 5 µM. Turning to `COC(=O)NS(=O)(=O)c1ccc(NC(=O)[C@@H](CO)N2CCCc3cc(Cl)ccc32)cc1` [Compound 73], the IC50 was over 5 µM. Same read-out and setting: in the case of `C[C@H](C(=O)Nc1ccc(S(=O)(=O)NC(=O)c2ccccc2)cc1)n1ccc2c(F)cccc21` [Compound 74, (R)—N-(4-(2-(4-fluoro-1H indol-1-yl)propanamido)phenylsulfonyl)benzamide] it was over 5 µM; in that of `COC(=O)NS(=O)(=O)c1ccc(NC(=O)[C@H](C)N2CCCc3cc(Cl)ccc32)cc1` [Compound 75], over 5 µM; in that of `CCC#CCOC(=O)NS(=O)(=O)c1ccc(NC(=O)[C@@H](C)n2ccc3c(F)cccc32)cc1` [Compound 76], over 5 µM. Same read-out and setting: the figure for `COC(=O)NS(=O)(=O)c1ccc(NC(=O)[C@H](CC(C)C)n2ccc3c(F)cccc32)cc1` [Compound 77] is over 5 µM; for `COC(=O)NS(=O)(=O)c1ccc(NC(=O)[C@@H](C)Oc2ccc(Cl)cc2C)cc1` [Compound 78] it is over 5 µM; for `CCCCNC(=O)NS(=O)(=O)c1ccc(NC(=O)[C@@H](C)n2ccc3c(F)cccc32)cc1` [Compound 79] it is over 5 µM. Still for that read-out and setting: the figure for `COC(=O)NS(=O)(=O)c1ccc(NC(=O)[C@H](C)n2ccc3ccc(Cl)cc32)cc1` [Compound 80] is over 5 µM; for `COC(=O)NS(=O)(=O)c1ccc(NC(=O)c2cc3c(F)cc(Cl)cc3[nH]2)cc1` [Compound 81] it is over 5 µM; for `CC(=O)NS(=O)(=O)c1ccc(NC(=O)[C@@H](C)n2ccc3c(F)cccc32)cc1` [Compound 82] it is over 5 µM. With `COC(=O)NS(=O)(=O)c1ccc(NC(=O)Cn2cc(C)c3cc(Cl)ccc32)cc1` [Compound 83], the 50% inhibitory concentration (IC50) is over 5 µM. As to `COC(=O)NS(=O)(=O)c1ccc(NC(=O)[C@H](C)N2CCCc3ccccc32)cc1` [Compound 84], the half-inhibitory concentration (IC50) is over 5 µM. Same read-out and setting: the figure for `COC(=O)NS(=O)(=O)c1ccc(NC(=O)C(C)(C)n2ccc3c(F)cccc32)cc1` [Compound 85] is over 5 µM; for `COC(=O)NS(=O)(=O)c1ccc(NC(=O)[C@@H](CC(C)C)N2CCCc3cc(Cl)ccc32)cc1` [Compound 86] it is 2 to 5 µM. For `COC(=O)NS(=O)(=O)c1ccc(NC(=O)[C@@H](C)n2ccc3ccc(C(F)(F)F)cc32)cc1` [Compound 87, (R)-methyl 4-(2-(6-(trifluoromethyl)-1H-indol-1-yl)propanamido)phenylsulfonylcarbamate], the IC50 was under 2 µM. For `COC(=O)NS(=O)(=O)c1ccc(NC(=O)c2ccc(OC)cc2)cc1` [Compound 88], the IC50 is over 5 µM.

In another experiment the target is T1, NaV1.3.
Test: not given
As to conditions: read-out: TTX IC50; cited from earlier work.
`NC1=N[C@H](O)[C@H]2[C@H]3O[C@]4(O)O[C@@H]([C@@H](O)[C@@]2(N1)[C@@H]4O)[C@]3(O)CO` [TTX, tetrodotoxin]: the 50% inhibitory concentration (IC50) is 0.015 µM.

The values are drawn from patent US8883766B2, “Ion channel modulators and methods of use” (Vertex Pharmaceuticals Incorporated, priority 2007, dated 2014).
